{
  "source": "the supplement of paper PMC10307832",
  "experiment_in_all_cases": "relative viability (nuclei count vs DMSO), 5 days (fraction); higher = more cells survive",
  "key": {"[1]": {"compound": "O=c1[nH]cc(F)c(=O)[nH]1 [5-Fluorouracil] + CC1(C)CCC(c2ccc(Cl)cc2)=C(CN2CCN(c3ccc(C(=O)NS(=O)(=O)c4ccc(N[C@H](CCN5CCOCC5)CSc5ccccc5)c(S(=O)(=O)C(F)(F)F)c4)cc3)CC2)C1 [Navitoclax] (partner 0.5 µM)", "summary_of_the_method": "(§1)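 A single step with final 0.05% Triton X-100, 1% formaldehyde and 1 ug/ml Hoechst fixed the cells and stained nuclei 5 days after treatment. Lung cancer cell lines in 1536-well plates had been treated by pin tool the day after seeding with one drug alone or a fixed anchor-drug dose plus five library-drug doses (not always all listed) in √10 steps, and nuclei were counted on 4× images. Relative viability is the ratio of nuclei in treated wells to nuclei in vehicle wells, taken as the median of duplicate plates.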"}, "Sulindac + Olaparib": {"compound": "CC1=C(CC(=O)O)c2cc(F)ccc2/C1=C\\c1ccc([S+](C)[O-])cc1 [Sulindac] + O=C(c1cc(Cc2n[nH]c(=O)c3ccccc23)ccc1F)N1CCN(C(=O)C2CC2)CC1 [Olaparib] (partner 8 µM)", "summary_of_the_method": "as §1"}, "Sulindac + Tozasertib": {"compound": "CC1=C(CC(=O)O)c2cc(F)ccc2/C1=C\\c1ccc([S+](C)[O-])cc1 [Sulindac] + Cc1cc(Nc2cc(N3CCN(C)CC3)nc(Sc3ccc(NC(=O)C4CC4)cc3)n2)n[nH]1 [Tozasertib] (partner 0.1 µM)", "summary_of_the_method": "as §1"}, "[2]": {"compound": "CN[C@@H]1C[C@H]2O[C@@](C)([C@@H]1OC)n1c3ccccc3c3c4c(c5c6ccccc6n2c5c31)C(=O)NC4 [Staurosporine] + CC(=O)c1c(C)c2cnc(Nc3ccc(N4CCNCC4)cn3)nc2n(C2CCCC2)c1=O [Palbociclib] (partner 0.5 µM)", "summary_of_the_method": "as §1"}},
  "data": [
    {"cell line": "UMC-11", "values": [
      {"measurement": "relative viability", "setting": "[1]; first compound 0.02 µM", "result": 0.386},
      {"measurement": "relative viability", "setting": "[1]; first compound 0.2 µM", "result": 0.322},
      {"measurement": "relative viability", "setting": "[1]; first compound 0.6325 µM", "result": 0.286},
      {"measurement": "relative viability", "setting": "[1]; first compound 2 µM", "result": 0.241},
      {"measurement": "relative viability", "setting": "Sulindac + Olaparib; first compound 0.08 µM", "result": 0.463},
      {"measurement": "relative viability", "setting": "Sulindac + Olaparib; first compound 0.253 µM", "result": 0.342},
      {"measurement": "relative viability", "setting": "Sulindac + Olaparib; first compound 0.8 µM", "result": 0.42},
      {"measurement": "relative viability", "setting": "Sulindac + Olaparib; first compound 2.53 µM", "result": 0.339},
      {"measurement": "relative viability", "setting": "Sulindac + Olaparib; first compound 8 µM", "result": 0.332},
      {"measurement": "relative viability", "setting": "Sulindac + Tozasertib; first compound 0.08 µM", "result": 0.204},
      {"measurement": "relative viability", "setting": "Sulindac + Tozasertib; first compound 0.253 µM", "result": 0.192},
      {"measurement": "relative viability", "setting": "Sulindac + Tozasertib; first compound 0.8 µM", "result": 0.228},
      {"measurement": "relative viability", "setting": "Sulindac + Tozasertib; first compound 2.53 µM", "result": 0.2},
      {"measurement": "relative viability", "setting": "Sulindac + Tozasertib; first compound 8 µM", "result": 0.204},
      {"measurement": "relative viability", "setting": "[2]; first compound 0.005 µM", "result": 0.335},
      {"measurement": "relative viability", "setting": "[2]; first compound 0.05 µM", "result": 0.201},
      {"measurement": "relative viability", "setting": "[2]; first compound 0.1581 µM", "result": 0.152},
      {"measurement": "relative viability", "setting": "[2]; first compound 0.5 µM", "result": 0.158}
    ]}
  ]
}
